Reference: patent US20150183738A1, “3-N-BUTYL-1-ISOINDOLINONE AND USE THEREOF FOR PREVENTING OR TREATING CEREBRAL INFARCTION” (SUN YAT-SEN UNIVERSITY, priority 2012, published 2015)
“Also recorded” adds a separate entry of the source.

Experiments:
[1] = system: middle cerebral artery occlusion (MCAO) model in rats; assay: Influence on cerebral infarct area/volume in MCAO models of rats (TTC staining, image J); format: in vivo, Male SD rats; details: for average infarct area: 30 mg/kg intraperitoneal injection 15 min after ischemia, 2 hrs of cerebral infarction and 24 hrs of reperfusion, TTC staining
Experimental: The middle cerebral artery occlusion (MCAO) model in rats is constructed to observe the anti-cerebral ischemia of 3-n-butyl-1-isoindolinone. The MCAO model is divided into three groups: 1) a negative control group, i. e., an vegetable oil, 3 mL/kg; 2) 3-n-butyl-1-isoindolinone group, 30 mg/kg; 3) a positive control group, i. e., 3-n-butylphthalide, 30 mg/kg. All the three groups are administered via intraperitoneal injection. Male SD rats having a weight of 250 g are selected and administered 15 min after the ischemia. After 2 hrs of cerebral infarction and 24 hrs of reperfusion, brain slices are prepared and conducted with TTC staining. Software image J is used to process staining results, calculate infarct areas, and compared with the results among different groups. It is known from the results that an average infarct area of the blank group is 24.430%, the average infarct area of the 3-n-butyl-1-isoindolinone group is 14.365%, and the average infarct area of the butylphthalide group is 14.402%. […] Male SD rats having a weight of between 250 and 270 g are selected. The Male SD rats are cultivated at a room temperature of 25° C. and are forbidden from feeding food except for water 12 hrs before the operation. The MCAO models are constructed in accordance with longa method or the like. 10% chloral hydrate is used to anesthetize the rats by intraperitoneal injection with a dose of 350 mg/kg. The rat is then upwardly fixed on a rat plate in a supine position and illuminated by an incandescent lamp for maintaining a body temperature thereof at 37±0.5° C. Rat hairs at the middle position of the neck are sheared, and the skin at such position is incised after disinfection. The common carotid artery (CCA), external carotid artery (ECA), and internal carotid artery (ICA) of the right side are carefully separated. The ECA is cut, and a cut end is straightened and aligned with the ICA, and a thread is then inserted therefrom. The thread is inserted for a depth of approximately 19.0±0.5 mm. After 2 hrs, a part of the thread is pulled out to realize reperfusion. The rat after suture ligation is then put back to the rat cage. After 24 hrs of reperfusion, brain slices are prepared for staining. The rats are divided into three groups with 10 in each group: 1) a blank control group, i. e., an vegetable oil, 3 mL/kg; 2) 3-n-butyl-1-isoindolinone group, 30 mg/kg; 3) a positive control group, i. e., 3-n-butylphthalide, 30 mg/kg. All the three groups are administered with drugs via intraperitoneal injection 15 min after modeling. After 24 hrs of reperfusion, brains are collected from killed rats and placed in Petri dishes. The brain tissues are quickly collected and placed in a refrigerator at a temperature of −20° C. for 20 min and taken out. The olfactory bulb, the cerebellum, and the lower brainstem are removed, and the remaining brain is then cut for five times with an interval of 2 mm, whereby six consecutive coronal brain slices are formed. 2% TTC dye solution is added to the Petri dishes to submerge the brain slice by the solution. The Petri dishes are placed at the temperature of 37° C. and incubated in the absence of light for between 25 and 30 min during which the brain slices are turned over once every 5 min. After TTC staining of the brain slices, a normal tissue thereof presents red and an ischemic region presents white. When the TTC staining is finished, the TTC dye solution is removed out of the Petri dishes by syringes. Formalin solution with an amount enabling to submerge the brain slices is then added, and the Petri dishes are placed in the dark. After 24 hrs, solidified brain slices are taken out and arranged in order in a blue background to take pictures. […]

[2] = system: middle cerebral artery occlusion (MCAO) model in rats; assay: Neurobehavioral assessment (Zea Longa) in MCAO models of rats; format: in vivo, Male SD rats; details: score after 24 hrs of reperfusion; for alleviation of the neurobehavior compared with the blank control group (ANOVA): 30 mg/kg i.p.
Experimental: Male SD rats having a weight of between 250 and 270 g are selected. The Male SD rats are cultivated at a room temperature of 25° C. and are forbidden from feeding food except for water 12 hrs before the operation. The MCAO models are constructed in accordance with longa method or the like. 10% chloral hydrate is used to anesthetize the rats by intraperitoneal injection with a dose of 350 mg/kg. The rat is then upwardly fixed on a rat plate in a supine position and illuminated by an incandescent lamp for maintaining a body temperature thereof at 37±0.5° C. Rat hairs at the middle position of the neck are sheared, and the skin at such position is incised after disinfection. The common carotid artery (CCA), external carotid artery (ECA), and internal carotid artery (ICA) of the right side are carefully separated. The ECA is cut, and a cut end is straightened and aligned with the ICA, and a thread is then inserted therefrom. The thread is inserted for a depth of approximately 19.0±0.5 mm. After 2 hrs, a part of the thread is pulled out to realize reperfusion. The rat after suture ligation is then put back to the rat cage. After 24 hrs of reperfusion, brain slices are prepared for staining.
The rats are divided into three groups with 10 in each group: 1) a blank control group, i. e., an vegetable oil, 3 mL/kg; 2) 3-n-butyl-1-isoindolinone group, 30 mg/kg; 3) a positive control group, i. e., 3-n-butylphthalide, 30 mg/kg. All the three groups are administered with drugs via intraperitoneal injection 15 min after modeling.
According to Zea Longa assessment, ethology observation is conducted after 2 hrs of modeling and 24 hrs of reperfusion and before killing the rats. The tail of the rat is seized to lift the rat about 1 foot off the ground to observe the condition of the left forelimb. […]
After 24 hrs of reperfusion of the MCAO models of the rats, the neurobehavioral assessment is conducted on the rats again, and the results are recorded.

[3] = background statement; oily liquid; cited from earlier work
[4] = 30 mg/kg i.p., 2 hrs MCAO, 24 hrs reperfusion

Compound: CCCCC1NC(=O)c2ccccc21 (stereo not shown) [3-n-butyl-1-isoindolinone]
- infarct volume reduced compared with the solvent control group [1, 4]: 41.199%
- reduced infarct area compared with the blank control group (one-factor ANOVA) [1, 4]: significant difference (P<0.001)
- average infarct area [1]: 14.365%
- reduced infarct area, difference compared with butylphthalide (one-factor ANOVA) ([1]; both 30 mg/kg i.p., 2 hrs MCAO, 24 hrs reperfusion): no significant statistical difference; also recorded: no statistical significance (P=0.989)
- alleviation of the neurobehavior compared with the blank control group (ANOVA) [2]: significant difference (P=0.003<0.01)
- alleviation of the neurobehavior compared with the butylphthalide group (ANOVA) ([2]; both 30 mg/kg i.p.): no significant difference (P=0.384>0.05)

Compound: CCCCC1OC(=O)c2ccccc21 (stereo not shown) [butylphthalide, 3-n-butylphthalide, reference compound]
- reduced infarct area compared with the blank control group (one-factor ANOVA) [1, 4]: significant difference (P<0.01)
- average infarct area [1]: 14.402%
- alleviation of the neurobehavior compared with the blank control group (ANOVA) [2]: significant difference
- water solubility [3]: water insoluble
